Measurements taken from US11725096B2, “Zinc oxide complexes” (MARY KAY INC., priority 2010, dated 2023).

Tests used:
[1] = cited from earlier work
[2] = Solubility / dissociation of the complexes in water; conditions: approximately 0.1 g in 10 Ml deionized water, after standing overnight
Description: Zinc oxide and lactic acid were mixed in an ethanol solution (reagent grade ethyl alcohol denatured with methanol and isopropyl alcohol) containing approximately 10% water at room temperature with continuous stirring using a magnetic stirrer. […] The crystals were isolated by filtering.
(§1) Specifically, approximately 0.1 g zinc oxide/lactic acid was dissolved in 10 Ml of deionized water via vortexing. […] Specifically, approximately 0.1 g zinc oxide was mixed in 10 Ml sodium lactate solution (containing approximately 0.88 g sodium lactate in 10 Ml deionized water). The mixture was vortexed to dissolve the particles such that no large visible particles remained.

[3] = Description: To further test solubility of the zinc oxide/lactic acid complexes in a solution comprising lactic acid and water, increasing amounts of lactic acid were added to 0.725 g zinc oxide/lactic acid complexes. Specifically, the following amounts of 88% lactic acid were added to the zinc oxide/lactic acid complexes in 10 Ml deionized water: 0.0273 g, 0.0262 g, 0.0345 g, 0.0575 g, 0.0757 g, 0.1166 g, 0.1562 g, 0.1389 g, 0.1486 g, and 0.2810 g. Approximately 0.3 g zinc oxide/lactic acid complexes were also mixed with 0.0670 g or 0.2517 g 88% lactic acid.
[4] = type: physicochemical
Description: as §1

SMILES	solubility in neutral aqueous solutions [1]	Ph of the mixture in water [2]	solubility in lactic acid and water (appearance of the mixture) [3]	solubility in sodium lactate [4]	Ph of the mixture in sodium lactate solution ([4]; approximately 0.1 g in 10 Ml sodium lactate solution, overnight)
[O]=[Zn] [Zinc oxide, zinc oxide]	nearly insoluble	–	–	–	–
CC1[O][Zn]2([OH])([O]C1=O)[O]C(=O)C(C)[O]2 (centres unmarked) [zinc oxide/lactic acid complexes]	–	approximately 6	milky mixture that settles upon standing	soluble in sodium lactate	approximately 6
